Data as given in patent publication US20080312435A1, “Imine Compound” (TAISHO PHARMACEUTICAL CO., LTD., priority 2004, published 2008).

Legend:
[1] = biological target: T1, human CB2 receptor (Homo sapiens, UniProt P34972); assay: Human CB2 receptor binding inhibition test ([3H]CP-55,940, CHO membrane fractions); conditions: [3H]CP-55,940, membrane fractions of CHO cells stably expressing human CB2 receptor, 25° C., 2 hours; read-out: CB2 IC50 (Inhibition of binding to human CB2 receptor)
T1 construct: expressed in transfected cells
T1 sequence (P34972 whole entry): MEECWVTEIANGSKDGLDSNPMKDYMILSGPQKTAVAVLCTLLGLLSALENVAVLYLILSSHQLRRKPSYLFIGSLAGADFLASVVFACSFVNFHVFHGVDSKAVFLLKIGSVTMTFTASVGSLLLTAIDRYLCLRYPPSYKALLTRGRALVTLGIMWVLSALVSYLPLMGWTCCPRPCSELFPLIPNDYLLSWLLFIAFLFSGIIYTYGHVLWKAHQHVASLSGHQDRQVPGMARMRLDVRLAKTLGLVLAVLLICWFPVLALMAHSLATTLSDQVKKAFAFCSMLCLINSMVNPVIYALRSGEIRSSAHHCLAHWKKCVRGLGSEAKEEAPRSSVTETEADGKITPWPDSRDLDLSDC
Method in brief: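 Membranes from CHO-DHFR(−) cells stably expressing human CB2 used for [3H]CP-55,940 binding; filter-bound radioactivity counted by scintillation after washes with 0.1% BSA buffer. Nonspecific binding defined with 2.0 μM CP-55,940; IC50 for inhibition of specific binding.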

[2] = biological target: T2, human CB1 receptor (Homo sapiens, UniProt P21554); assay: Human CB1 receptor binding inhibition test; conditions: CHO-DHFR(−) cells stably expressing human CB1 receptor, same manner as Experimental Example 1
T2 construct: expressed in transfected cells
T2 sequence (P21554 whole entry): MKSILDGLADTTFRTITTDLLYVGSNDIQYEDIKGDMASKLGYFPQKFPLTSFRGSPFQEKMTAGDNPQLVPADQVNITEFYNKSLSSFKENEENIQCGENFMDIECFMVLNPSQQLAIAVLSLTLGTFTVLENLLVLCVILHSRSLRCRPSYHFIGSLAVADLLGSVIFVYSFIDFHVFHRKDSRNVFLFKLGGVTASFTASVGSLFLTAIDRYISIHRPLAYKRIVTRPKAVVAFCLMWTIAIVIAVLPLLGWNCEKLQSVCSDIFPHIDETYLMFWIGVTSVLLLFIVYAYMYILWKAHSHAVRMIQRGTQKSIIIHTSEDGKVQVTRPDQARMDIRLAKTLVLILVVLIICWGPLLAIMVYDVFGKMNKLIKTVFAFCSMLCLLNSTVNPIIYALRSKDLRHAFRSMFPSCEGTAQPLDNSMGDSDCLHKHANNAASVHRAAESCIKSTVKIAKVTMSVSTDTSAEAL
Procedure: Human CB1 Receptor Binding Inhibition Test
The CHO-DHFR(−) cells capable of stably expressing a CB1 receptor were prepared in the same manner as in Experimental Example 1. The binding test to the human CB1 receptor was performed to obtain 50% inhibitory concentration (IC50 value) of a test compound.

Compound | IC50 [1] [nM] | IC50 [2] [nM] | melting point [°C]
Cc1c(C(C)(C)C)s/c(=N\C(=O)c2ccccc2N2CCOCC2)n1CC1CC1 [compound 206] | 5.7 | 460 | 
Cc1ncccc1C(=O)/N=c1/sc(C(C)(C)C)c(C)n1CC1CC1 [compound 295] | 12.3 | 497 | 
Cc1c(C(C)(C)C)s/c(=N\C(=O)c2nccc3ccccc23)n1CC1CC1 [compound 324] | 2 | 353 | 
Cc1c(C(C)(C)C)s/c(=N\C(=O)c2ccccc2I)n1CC1CC1 [compound 191] | 0.7 | 193 | 
Cc1ccccc1C(=O)/N=c1\sc(C(C)(C)C)c(C)n1CC1CC1 [compound 180] | 1 | 395 | 
Cc1c(C(=O)/N=c2\cc(C(C)(C)C)n(C)n2CCOC(C)C)cccc1C(F)(F)F [compound 494] | 2.1 | 279 | 
COc1ccc(C(=O)/N=c2\sc(C(C)(C)C)c(C)n2CC2CC2)c(OC)c1 [compound 236] | 2 | 215 | 
CCc1s/c(=N\C(=O)c2cccc(C(F)(F)F)c2F)n(CC2CC2)c1C [compound 109] | 1.3 |  | 164 to 166
CCc1ccccc1C(=O)/N=c1\sc(C)c(C)n1CC1CC1 [compound 71] | 5.9 |  | 150 to 152
Cc1ccc(F)cc1C(=O)/N=c1\sc(C)c(C)n1CC1CC1 [compound 89] | 9.8 |  | 82 to 84
COc1cccc(C(=O)/N=c2\sc(C(C)(C)C)c(C)n2CC2CC2)c1 [compound 194] | 19.1 |  | 108 to 109
CC(C)(C)c1c/c(=N\C(=O)c2cc(C(F)(F)F)ccc2F)n(CC2CC2)s1 [compound 58] | 1.8 |  | 63 to 65
Cc1c(C(C)(C)C)s/c(=N\C(=O)c2cccc(OC(F)(F)F)c2)n1CC1CC1 [compound 196] | 7.6 |  | 106 to 108
COc1ccc(OC)c(C(=O)/N=c2\sc(C(C)(C)C)c(C)n2CC2CC2)c1 [compound 234] | 0.7 |  | 83 to 85
Cc1ccc(C(=O)/N=c2\sc(C)c(C)n2CC2CC2)c(Br)c1 [compound 91] | 7.9 |  | 90 to 92
Cc1c(C(C)(C)C)s/c(=N\C(=O)c2cccc3cnccc23)n1CC1CC1 [compound 321] | 2.3 |  | 109 to 110
Cc1c(C(C)(C)C)s/c(=N\C(=O)CCC(F)(F)F)n1CC1CC1 [compound 335] | 5.5 |  | 102 to 103
Cc1ccc(F)cc1C(=O)/N=c1\sc(C(C)(C)C)c(C)n1CC1CC1 [compound 241] | 1 |  | 91 to 93
Cc1c(C(C)(C)C)s/c(=N\C(=O)c2ccccc2I)n1C [compound 122] | 8.9 |  | 83 to 85
Cc1c(C(C)(C)C)s/c(=N\C(=O)c2ccccc2Br)n1C [compound 120] | 7.4 |  | 182 to 184
CCn1c(C)c(C(C)(C)C)s/c1=N\C(=O)c1cc(F)ccc1Br [compound 155] | 4.3 |  | 115 to 116
Cc1s/c(=N\C(=O)CC(C)CC(C)(C)C)n(CC2CC2)c1C (racemic) [compound 99] | 6.5 |  | 42 to 43
Cc1s/c(=N\C(=O)c2ccccc2I)n(CC2CC2)c1C [compound 78] | 9.8 |  | 130 to 132
Cc1c(C(C)(C)C)s/c(=N\C(=O)c2cc(F)c(Cl)cc2Cl)n1C [compound 136] | 11.6 |  | 205 to 207

Compound | IC50 [1] [nM] | IC50 [2] [nM] | melting point [°C]
Cc1cccc(C)c1C(=O)/N=c1\sc(C(C)(C)C)c(C)n1CC1CC1 [compound 218] | 5.7 |  | 98 to 100
Cc1c(C(C)(C)C)s/c(=N\C(=O)c2cnnc3ccccc23)n1CC1CC1 [compound 325] | 13 |  | 140 to 141
COCCn1c(C)c(C(C)(C)C)s/c1=N\C(=O)c1cc(F)ccc1C [compound 351] | 2.2 |  | 106 to 107
Cc1c(C(C)(C)C)s/c(=N\C(=O)c2cc(Br)ccc2F)n1C [compound 132] | 15.7 |  | 144 to 145
Cc1s/c(=N\C(=O)c2cccc(Br)c2)n(CC2CC2)c1C [compound 77] | 19.3 |  | 159 to 160
Cc1cn(CC2CC2)/c(=N/C(=O)c2cccc(C(F)(F)F)c2F)s1 [compound 67] | 3 |  | 129 to 130
Cc1ccn(CC2CC2)/c(=N/C(=O)c2cccc(C(F)(F)F)c2F)c1 [compound 23] | 8.9 |  | 81 to 83
Cc1cccc(Cl)c1C(=O)/N=c1\sc(C(C)(C)C)c(C)n1CC1CC1 [compound 244] | 3.2 |  | 159 to 160
Cc1s/c(=N\C(=O)c2cc(F)c(Cl)cc2Cl)n(CC2CC2)c1C [compound 86] | 6.5 |  | 59 to 60
COc1cc(Cl)ccc1C(=O)/N=c1\sc(C(C)(C)C)c(C)n1C [compound 147] | 9.6 |  | 117 to 119
O=C(/N=c1\cc(C(F)(F)F)ccn1CC1CC1)c1cccc(C(F)(F)F)c1F [compound 29] | 8.6 |  | 85 to 86
Cc1ccc(F)c(C(=O)/N=c2\sc(C(C)(C)C)c(C)n2CC2CC2)c1 [compound 239] | 2.4 |  | 117 to 119
CC(=O)OC(C(=O)/N=c1\sc(C(C)(C)C)c(C)n1CC1CC1)c1ccccc1 (stereo not drawn) [compound 341] | 5.3 |  | 147 to 148
COc1ccc(Cl)cc1C(=O)/N=c1\sc(C)c(C)n1CC1CC1 [compound 97] | 3.3 |  | 121 to 123
COCCn1c(C)c(C(C)(C)C)s/c1=N\C(=O)c1cc(Br)ccc1F [compound 348] | 3.8 |  | 95 to 97
Cc1c(C(C)(C)C)s/c(=N\C(=O)c2ccc(F)c(F)c2F)n1CC1CC1 [compound 282] | 14.5 |  | 82 to 84
CCN(C)c1ccc(C(F)(F)F)cc1C(=O)/N=c1\sc(C(C)(C)C)c(C)n1CC1CC1 [compound 274] | 13.2 |  | 101 to 103
Cn1c(C(C)(C)C)c/c(=N\C(=O)c2cccc(Cl)c2Cl)n1CC1CCC1 [compound 481] | 3.4 |  | 152.5 to 154
Cc1c(C(C)(C)C)s/c(=N/C(=O)c2cccnc2F)n1CC1CC1 [compound 300] | 15 |  | 83 to 84
O=C(/N=c1\sc2ncccc2n1CC1CC1)c1cccc(C(F)(F)F)c1F [compound 382] | 17 |  | 156 to 158
CCn1c(C)c(C(C)(C)C)s/c1=N\C(=O)c1cnccc1C(F)(F)F [compound 170] | 13.8 |  | 110 to 112
CCn1c(C)c(C(C)(C)C)s/c1=N\C(=O)c1ccccc1OC(F)(F)F [compound 153] | 17.8 |  | 104 to 105
Cc1s/c(=N\C(=O)c2ccccc2Br)n(CC2CC2)c1C [compound 76] | 14.4 |  | 114 to 116
COCCn1c(C)c(C(C)(C)C)s/c1=N\C(=O)c1cccc(I)c1 [compound 346] | 13.5 |  | 119 to 121
